# Key:
# [1] = tested on: cultured human mast cells (CHMC); assay: CHMC low cell density IgE activation: tryptase and LTC4 assays; format: cell-based; conditions: Low Density CHMC, anti-IgE activation
# Procedure: Pellet CHMC cells (980 rpm, 10 min) and resuspend in pre-warmed MT. Add 65 ul of cells to each 96-well plate. Depending on the degranulation activity for each particular CHMC donor, load 1000-1500 cells/well. Mix four times followed by a 1 hr incubation at 37° C. […] Stimulate cells by adding 25 ul of 6× anti-IgE solution to the appropriate plates. Add 25 ul MT to un-stimulated control wells. Mix twice following addition of the anti-IgE. Incubate at 37° C. for 30 minutes. […] Spin plates at 1000 rpm for 10 min to pellet cells. Transfer 25 ul of supernatant to a 96-well black bottom plate and add 100 ul of freshly diluted tryptase substrate solution to each well. Incubate plates at room temperature for 30 min.
# Leukotriene C4 (LTC4) is also quantified using an ELISA kit on appropriately diluted supernatant samples (determined empirically for each donor cell population so that the sample measurement falls within the standard curve) following the supplier's instructions.
# [2] = tested on: cultured human mast cells (CHMC); assay: CHMC low cell density ionomycin activation: tryptase assay; format: cell-based; conditions: Low Density CHMC, ionomycin activation, tryptase readout, read-out: CHMC Ionomycin Tryptase
# [3] = Homo sapiens, Mast cell, tryptase readout, read-out: CHMC anti-IgE Tryptase
"IC50 [1, 3] [nM]","IC50 ([2]; Homo sapiens, Mast cell) [µM]","IC50 ([1]; tryptase readout, read-out: CHMC anti-IgE Tryptase) [nM]",IC50 [2] [µM],"IC50 ([1]; Homo sapiens, Mast cell, LTC4 readout, read-out: CHMC anti-IgE LTC4) [nM]",SMILES
104,7.4,,,,"O=C1COc2ccc(Nc3nc(Nc4cccc(O)c4)ncc3F)cc2N1 [Compound R908702, N4-(1,4-Benzoxazine-3-on-6-yl)-5-fluoro-N2-(3-hydroxyphenyl)-2,4-pyrimidinediamine]"
630,> 10,,,,"CN1C(=O)COc2ccc(Nc3ncc(F)c(Nc4cccc(O)c4)n3)cc21 [Compound R908703, 5-Fluoro-N4-(3-hydroxyphenyl)-N2-(N-methyl-1,4-benzoxazine-3-on-6-yl)-2,4-pyrimidinediamine]"
511,> 10,,,,"CN1C=COc2cc(Nc3ncc(F)c(Nc4cccc(O)c4)n3)ccc21 [Compound R908704, 5-Fluoro-N4-(3-hydroxyphenyl)-N2-(N-methyl-1,4-benzoxazin-7-yl)-2,4-pyrimidinediamine]"
445,> 10,,,,"Oc1cccc(Nc2nc(Nc3ccc4c(c3)OCC=N4)ncc2F)c1 [Compound R908706, N2-(1,4-Benzoxazin-7-yl)-5-fluoro-N4-(3-hydroxyphenyl)-2,4-pyrimidinediamine]"
1830,> 10,,,,"CN1C=COc2cc(Nc3nc(Nc4cccc(O)c4)ncc3F)ccc21 [Compound R908707, 5-Fluoro-N2-(3-hydroxyphenyl)-N4-(N-methyl-1,4-benzoxazin-7-yl)-2,4-pyrimidinediamine]"
1840,99,,,,"CN1C=COc2ccc(Nc3nc(Nc4cccc(O)c4)ncc3F)cc21 [Compound R908710, 5-Fluoro-N2-(3-hydroxyphenyl)-N4-(N-methyl-1,4-benzoxazin-6-yl)-2,4-pyrimidinediamine]"
263,> 10,,,,"Oc1cccc(Nc2ncc(F)c(Nc3ccc4c(c3)N=CCO4)n2)c1 [Compound R909243, N4-(1,4-benzoxazin-6-yl)-5-fluoro-N2-(3-hydroxyphenyl)-2,4-pyrimidinediamine]"
255,6.24,,,,"COc1cc(Nc2ncc(F)c(Nc3ccc4c(c3)N=CCO4)n2)cc(OC)c1 [Compound R909245, N4-(1,4-Benzoxazin-6-yl)-N2-(3,5-dimethoxyphenyl)-5-fluoro-2,4-pyrimidinediamine]"
169,> 10,,,,"CC(C)(C)c1cccc(Nc2ncc(F)c(Nc3ccc4c(c3)N=CCO4)n2)c1 [Compound R909246, N4-(1,4-Benzoxazin-6-yl)-N2-(3-tert-butylphenyl)-5-fluoro-2,4-pyrimidinediamine]"
3580,> 10,,,,"OCCOc1ccc(Nc2ncc(F)c(Nc3ccc4c(c3)N=CCO4)n2)cc1 [Compound R909248, N4-(1,4-Benzoxazin-6-yl)-5-fluoro-N2-[4-(2-hydroxyethyl)oxyphenyl]-2,4-pyrimidinediamine]"
8020,> 10,,,,"Oc1cccc(Nc2nc(Nc3ccc4c(c3)CCO4)ncc2F)c1 [Compound R909250, N2-(2,3-Dihydrobenzofuran-5-yl)-5-fluoro-N4-(3-hydroxyphenyl)-2,4-pyrimidinediamine]"
244,> 10,,,,"Cc1cc(Nc2ncc(F)c(Nc3ccc4c(c3)N=CCO4)n2)cc(Cl)c1O [Compound R909255, N4-(1,4-Benzoxazin-6-yl)-N2-(3-chloro-4-hydroxy-5-methylphenyl)-5-fluoro-2,4-pyrimidinediamine]"
564,> 10,,,,"Oc1cccc(Nc2ncc(F)c(Nc3ccc(OC(F)(F)F)c(Cl)c3)n2)c1 [Compound R920411, N4-(3-Chloro-4-trifluoromethoxyphenyl)-5-fluoro-N2-(3-hydroxyphenyl)-2,4-pyrimidinediamine]"
> 10000,> 10,,,,"CCCCCCOc1ccc(Nc2ncc(F)c(Nc3ccc4c(c3)OCCO4)n2)cc1 [Compound R920664, N4-(3,4-Ethylenedioxyphenyl)-5-fluoro-N2-(4-n-hexyloxyphenyl)-2,4-pyrimidindiamine]"
2530,> 10,,,,"CCCCOc1ccc(Nc2cc(Nc3ccc4c(c3)OCCO4)c(F)cn2)cc1 [Compound R920666, N2-(4-n-Butyloxyphenyl)-N4-(3,4-ethylenedioxyphenyl)-5-fluoro-2,4-pyridinediamine]"
3200,> 10,,,,"Fc1cnc(Nc2cccnc2)nc1Nc1ccc2c(c1)OCCO2 [Compound R920668, N4-(3,4-Ethylenedioxyphenyl)-5-fluoro-N2-(3-pyridyl)-2,4-pyrimidinediamine]"
> 10000,> 10,,,,"CCCCOc1ccc(Nc2cc(Nc3ccc4c(c3)OCCO4)ncc2F)cc1 [Compound R920671, N4-(4-n-Butyloxyphenyl)-N2-(3,4-ethylenedioxyphenyl)-5-fluoro-2,4-pyridinediamine]"
> 10000,> 10,,,,"CCCCCCOc1ccc(Nc2cc(Nc3ccc4c(c3)OCCO4)ncc2F)cc1 [Compound R920672, N4-(4-n-Hexyloxyphenyl)-N2-(3,4-ethylenedioxyphenyl)-5-fluoro-2,4-pyridinediamine]"

"IC50 [1, 3] [nM]","IC50 ([2]; Homo sapiens, Mast cell) [µM]","IC50 ([1]; tryptase readout, read-out: CHMC anti-IgE Tryptase) [nM]",IC50 [2] [µM],"IC50 ([1]; Homo sapiens, Mast cell, LTC4 readout, read-out: CHMC anti-IgE LTC4) [nM]",SMILES
,,> 10000,> 10,,Oc1cccc(Nc2nc(Nc3ccc(OCc4nnn[nH]4)cc3)ncc2C(F)(F)F)c1 [Compound R920846]
1770,> 10,,,,"CCOC(=O)c1cccc(Nc2ncc(F)c(Nc3ccc4c(c3)OCCO4)n2)c1 [Compound R925745, N2-(3-Ethoxycarbonylphenyl)-N4-(3,4-ethylenedioxyphenyl)-5-fluoro-2,4-pyrimidinediamine]"
2800,> 10,,,,"OCc1cccc(Nc2ncc(F)c(Nc3cccc(CO)c3)n2)c1 [Compound R925757, N2,N4-Bis(3-(hydroxymethyl)phenyl)-5-fluoro-2,4-pyrimidinediamine]"
1180,> 10,,,,"OCc1cccc(Nc2nc(Nc3ccc4c(c3)OCCO4)ncc2F)c1 [Compound R925758, N2-(3,4-Ethylenedioxyphenyl)-5-fluoro-N4-[3-(hydroxymethyl)phenyl]-2,4-pyrimidinediamine]"
4850,> 10,,,,"Nc1nc(N(c2ccc(CO)cc2)c2ccc3c(c2)OCCO3)ncc1F [Compound R925760, N2-(3,4-Ethylenedioxyphenyl)-5-fluoro-N2-[4-(hydroxymethyl)phenyl]-2,4-pyrimidinediamine]"
6800,> 10,,,,"Nc1nc(N(CC(O)c2ccccc2)c2ccc3c(c2)OCCO3)ncc1F (centres unmarked) [Compound R925765, N2-(3,4-Ethylenedioxyphenyl)-5-fluoro-N2-(2-hydroxy-2-phenylethyl)-2,4-pyrimidinediamine]"
500,2.8,,,220,"Brc1cnc(Nc2ccc3c(c2)OCCO3)nc1Nc1ccc2c(c1)OCCO2 [Compound R925771, N2,N4-Bis(3,4-ethylenedioxyphenyl)-5-bromo-2,4-pyrimidinediamine]"
> 10000,> 10,,,,"Fc1cnc(NCc2ccccc2)nc1NCc1ccccc1 [Compound R925772, N2,N4-Dibenzyl-5-fluoro-2,4-pyrimidinediamine]"
673,> 10,,,,"N#Cc1cnc(Nc2ccc3c(c2)OCCO3)nc1Nc1ccc2c(c1)OCCO2 [Compound R925773, N2,N4-Bis(3,4-ethylenedioxyphenyl)-5-cyano-2,4-pyrimidinediamine]"
435,> 10,,,,"N#Cc1cnc(Nc2cccc(O)c2)nc1Nc1cccc(O)c1 [Compound R925774, N2,N4-Bis(3-hydroxyphenyl)-5-cyano-2,4-pyrimidinediamine]"
2100,> 10,,,,"Fc1cnc(Nc2ccc3c(c2)OCO3)nc1Nc1ccc2c(c1)OCO2 [Compound R925776, N2,N4-Bis(3,4-methylenedioxyphenyl)-5-fluoro-2,4-pyrimidinediamine]"
2900,> 10,,,,"Oc1cccc(Nc2ncc(-c3ccccc3)c(Nc3cccc(O)c3)n2)c1 [Compound R925783, N2,N4-Bis(3-hydroxyphenyl)-5-phenyl-2,4-pyrimidinediamine]"
3200,> 10,,,,"c1ccc(-c2cnc(Nc3ccc4c(c3)OCCO4)nc2Nc2ccc3c(c2)OCCO3)cc1 [Compound R925784, N2,N4-Bis(3,4-ethylenedioxyphenyl)-5-phenyl-2,4-pyrimidinediamine]"
2500,> 10,,,,"c1coc(-c2cnc(Nc3ccc4c(c3)OCCO4)nc2Nc2ccc3c(c2)OCCO3)c1 [Compound R925785, N2,N4-Bis(3,4-ethylenedioxyphenyl)-5-(2-furanyl)-2,4-pyrimidinediamine]"
1850,> 10,,,,"Clc1ccc(-c2cnc(Nc3ccc4c(c3)OCCO4)nc2Nc2ccc3c(c2)OCCO3)cc1 [Compound R925786, N2,N4-Bis(3,4-ethylenedioxyphenyl)-5-(4-chlorophenyl)-2,4-pyrimidinediamine]"
9000,> 10,,,,"Clc1cccc(-c2cnc(Nc3ccc4c(c3)OCCO4)nc2Nc2ccc3c(c2)OCCO3)c1 [Compound R925787, N2,N4-Bis(3,4-ethylenedioxyphenyl)-5-(3-chlorophenyl)-2,4-pyrimidinediamine]"
2400,> 10,,,,"Oc1cccc(Nc2ncc(-c3ccc4c(c3)OCO4)c(Nc3cccc(O)c3)n2)c1 [Compound R925788, N2,N4-Bis(3-hydroxyphenyl)-5-(3,4-methylenedioxyphenyl)-2,4-pyrimidinediamine]"
